How the values were obtained:
[1] = target: T1, TRPV4 (Sus scrofa, UniProt B3VP30); experiment: IL-1Ra production by mechanogenetic cartilage constructs (ELISA); type: cell-based, porcine; settings: NFKBr-IL1Ra tissues, 1 nM GSK101 3 hours/day over 5 days vs DMSO
T1 construct: endogenous in cells; host or cells: primary porcine articular chondrocytes (femurs of pigs from a local abattoir)
Excerpt: Synthetic mechanogenetic circuits respond to TRPV4 activation to drive transgene expression: TRPV4 activation in response to mechanical loading up-regulates a diverse group of targeted genes. On the basis of the TRPV4-activated signaling pathway, activation of the nuclear factor κ light chain enhancer of activated B cells (NF-κB) pathway was identified and up-regulation of the prostaglandin-endoperoxide synthase 2 (PTGS2) gene as two distinct avenues to construct TRPV4-responsive synthetic mechanogenetic gene circuits. […]
Osmotic stimulation—For calcium imaging studies, osmotic loading media were prepared using Hanks' balanced salt solution medium (Gibco). […] These media were titrated to hypo-osmotic media by adding distilled water and measured with a freezing point osmometer (Osmette 2007; Precision Systems). […]
Mechanogenetic circuit testing outcome measures: Assessing mechanogenetic tissue construct activation in IL-1Ra-producing constructs was measured with an enzyme-linked immunosorbent assay for mouse IL-1Ra (R&D Systems) according to the manufacturer's protocols. […]

[2] = system: TRPV4; experiment: RNA-sequencing of tissue engineered cartilage: mechanical loading, GSK101, IL-1α; type: cell-based; settings: GSK101 TRPV4 activation, 24 hour time course
Description: RNA-sequencing was performed to assess mechanically-sensitive gene targets that are distinct from a cellular inflammation response. […] Targets of interest were selected as targets that were shared between stimulation to mechanical loading and GSK101 agonist activation of TRPV4 but not stimulated by IL-1α inflammation.

[3] = target: T1, TRPV4; experiment: Microarray transcriptomic profile of engineered cartilage after mechanical loading or GSK101; type: cell-based, porcine
Excerpt: TRPV4 activation in chondrocytes induces transient anabolic and inflammatory signaling networks: Next, it was sought to understand the time course of specific downstream signaling pathways and GRNs regulated by mechanical activation of TRPV4 using microarray analysis. Because TRPV4 is a multimodal channel, downstream signaling is likely dependent on the activation mode as well as cell and tissue type. For these studies, primary porcine chondrocytes were cast in agarose to create engineered cartilage constructs and subjected to either compressive mechanical loading [10% sinusoidal peak-to-peak strain at 1 Hz for 3 hours as described previously] or pharmacologic stimulation with the TRPV4 agonist GSK101 (1 nM for 3 hours), or left unloaded (free-swelling controls), and measured the transcriptional activity at 0, 3, 12, and 20 hours following an initial round of stimulation and then at 24 and 72 hours after additional daily bouts of mechanical loading or GSK101 (n=3 per condition per time point; FIG. 3A). […] Up-regulation of these targets was immediate and subsided quickly, with transcript levels returning to baseline 12 to 20 hours after activation.
Microarray collection and analysis: After a 14-day preculture, engineered cartilage constructs (04 mm×2.25 mm) were stimulated under 10% compressive loading or 1 nM GSK101 for 3 hours per day for 3 days. Unstimulated controls (free-swelling) constructs were cultured under identical conditions. Immediately after stimulation, constructs were washed and then fed with culture medium. Constructs were snap-frozen in liquid N2 at 0, 3, 6, 12, 20, 24, and 72 hours after initial stimulation. Total RNA was extracted from the constructs using a pestle homogenizer and the Norgen Biotek RNA/protein purification plus kit. RNA quantity and quality were assessed with NanoDrop (Thermo Fisher Scientific) and the Agilent Bioanalyzer. Total RNA was processed using the Ambion WT expression labeling kit and the Porcine Gene 1.0 ST Array (Affymetrix). […]

[4] = system: Piezo1; experiment: RNA-seq of tissue engineered cartilage after 80% strain or Yoda1 stimulation; type: cell-based; settings: 80% strain or Yoda1, RNA-seq
Description: Tissue engineered cartilage tissues were either mechanically loaded to 80% strain or stimulated with the Piezo1 agonist Yoda1. Control tissues (FS group) were cultured in vehicle control media and left under free-swelling (non loaded) conditions. RNA-seq was used to assess the transcriptomic regulation to high mechanical loading or Yoda1-stimulation.
Volcano plot projections of gene targets that are differentially regulated by mechanical loading to 80% strain (FIG. 9 left graph) or Yoda1 stimulation (FIG. 9 right graph) display a range of targets that are regulated by Piezo1 stimulation (targets highlighted in red are |LFC|>1 and FDR (padj)<0.05).

T1 sequence (B3VP30 1-871): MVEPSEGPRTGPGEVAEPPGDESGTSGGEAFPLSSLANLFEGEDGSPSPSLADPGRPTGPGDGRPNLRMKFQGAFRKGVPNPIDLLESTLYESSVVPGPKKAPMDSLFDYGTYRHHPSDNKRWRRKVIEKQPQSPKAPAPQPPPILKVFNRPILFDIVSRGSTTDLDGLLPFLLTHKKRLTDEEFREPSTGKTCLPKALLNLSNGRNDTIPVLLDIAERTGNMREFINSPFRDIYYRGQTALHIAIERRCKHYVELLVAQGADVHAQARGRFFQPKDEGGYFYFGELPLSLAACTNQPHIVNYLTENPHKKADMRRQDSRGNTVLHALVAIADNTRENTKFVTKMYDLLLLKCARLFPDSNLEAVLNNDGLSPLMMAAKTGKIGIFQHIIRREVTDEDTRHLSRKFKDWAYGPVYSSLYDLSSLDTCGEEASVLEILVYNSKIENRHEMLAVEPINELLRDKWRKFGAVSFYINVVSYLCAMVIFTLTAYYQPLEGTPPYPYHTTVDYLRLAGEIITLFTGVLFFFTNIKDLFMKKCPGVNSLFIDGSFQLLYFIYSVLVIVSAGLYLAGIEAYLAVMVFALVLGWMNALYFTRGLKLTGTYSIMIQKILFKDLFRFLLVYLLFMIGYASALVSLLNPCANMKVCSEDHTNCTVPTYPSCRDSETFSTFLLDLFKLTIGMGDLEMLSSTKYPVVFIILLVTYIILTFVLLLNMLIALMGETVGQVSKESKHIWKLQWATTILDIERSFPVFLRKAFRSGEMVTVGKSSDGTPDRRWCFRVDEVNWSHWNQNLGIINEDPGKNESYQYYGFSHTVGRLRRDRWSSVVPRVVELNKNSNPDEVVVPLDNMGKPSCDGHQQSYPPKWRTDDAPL

SMILES: CC(C)C[C@H](NC(=O)c1cc2ccccc2s1)C(=O)N1CCN(C(=O)[C@H](CO)NS(=O)(=O)c2ccc(Cl)cc2Cl)CC1 [GSK101]
- circuit response to pharmacologic activation of TRPV4 [1]: activated the NFKBr-IL1Ra circuit
- regulation of FGF1, PMEPA1 and snora70 [2]: significantly upregulated
- genes commonly responsive to both mechanical loading and pharmacologic activation of TRPV4 ([3]; 0, 24 and 72 hours): 15 genes
- transcripts repeatedly responsive to GSK101 supplementation ([3]; 0, 24 and 72 hours, daily bouts of 1 nM GSK101): 112 transcripts
- transcripts up-regulated under both mechanical loading and pharmacologic stimulation ([3]; first 20 hours after initial stimulation, GSK101 1 nM for 3 hours, vs unloaded controls): 43 transcripts

SMILES: Clc1cccc(Cl)c1CSc1nnc(-c2cnccn2)s1 [Yoda1]
- gene targets similarly regulated by mechanical loading and Yoda1 stimulation [4]: ADAMTS1, IGSF9B, PTGS2, NR4A2, LOC100512181, NR4A1, INHBA, and CSRNP2

Reference: patent publication US20240254510A1, “METHODS FOR GENERATING MECHANICALLY-RESPONSIVE CELLS AND USES THEREOF” (Washington University, priority 2021, published 2024)
